Assay results: ChEMBL document CHEMBL5247677, “N-Aryl Indoles as a Novel Class of Potent NaV1.7 Inhibitors” (ACS Med Chem Lett, 2023)
In brackets after ≈: the same amount, converted by molar mass. Activity calls are given as the source filed them. The calls are words filed in the database; no cut-off is given here.

What was measured:
[1] = target: Sodium channel protein type 9 subunit alpha/beta-1/beta-2 (Homo sapiens, UniProt Q15858); experiment: Inhibition of human Nav1.7/beta1/2 transfected in HEK293-A cells assessed as inhibition of channel current incubated for 5.5 mins by high-throughput electrophysiology system analysis; format: cell-based
[2] = target: Sodium channel protein type 9 subunit alpha/beta-1/beta-2 (Mus musculus, UniProt Q62205); experiment: Inhibition of mouse Nav1.7/beta1/2 transfected in HEK293-A cells assessed as inhibition of channel current incubated for 5.5 mins by high-throughput electrophysiology system analysis; format: cell-based
[3] = target: Sodium channel protein type 1 subunit alpha/beta-1/beta-2 (Homo sapiens, UniProt P35498); experiment: Inhibition of human Nav1.1/beta1/2 transfected in HEK293-A cells assessed as inhibition of channel current incubated for 5.5 mins by high-throughput electrophysiology system analysis; format: toxicity, cell-based
[4] = target: Sodium channel protein type 5 subunit alpha/beta-1/beta-2 (Homo sapiens, UniProt Q14524); experiment: Inhibition of human Nav1.5/beta1/2 transfected in HEK293-A cells assessed as inhibition of channel current incubated for 5.5 mins by high-throughput electrophysiology system analysis; format: toxicity, cell-based
[5] = Selectivity ratio of IC50 for human Nav1.1/beta1/2 transfected in HEK293-A cells to IC50 for human Nav1.7/beta1/2 transfected in HEK293-A cells
[6] = Selectivity ratio of IC50 for human Nav1.5/beta1/2 transfected in HEK293-A cells to IC50 for human Nav1.7/beta1/2 transfected in HEK293-A cells
[7] = target: hERG (KCNH2) (Homo sapiens, UniProt Q12809); experiment: Inhibition of hERG at 100 uM; format: toxicity
[8] = 1-Octanol/PBS buffer distribution coefficient, log D of the compound at pH 7.4 by HPLC/LC-MS analysis; format: physicochemical
[9] = Aqueous thermodynamic solubility of the compound at pH 6.8 measured after 4 hrs by HPLC-UV analysis; format: physicochemical; settings: read-out: Therm_solubility
[10] = Unbound fraction in mouse plasma; format: ADME, cell-free
[11] = test system: Mus musculus; experiment: Analgesic activity against PSL-induced neuropathic pain mouse model assessed as reversal of thermal hyperalgesia at 1 mg/kg, po measured after 30 mins by plantar test; format: functional
[12] = test system: Mus musculus; experiment: Analgesic activity against PSL-induced neuropathic pain mouse model assessed as reversal of thermal hyperalgesia at 1 mg/kg, po measured after 60 mins by plantar test; format: functional, organism-based
[13] = test system: Mus musculus; experiment: Analgesic activity against PSL-induced neuropathic pain mouse model assessed as reversal of thermal hyperalgesia at 1 mg/kg, po measured after 120 mins by plantar test; format: functional, organism-based
[14] = Cmax in ddY mouse at 1 mg/kg, po by LC-MS/MS analysis; format: ADME, organism-based; design: dose 1 mg/kg, route po; settings: in vivo
[15] = Tmax in ddY mouse at 1 mg/kg, po by LC-MS/MS analysis; format: ADME, organism-based; settings: in vivo
[16] = AUC(0 to 24 hrs) in ddY mouse at 1 mg/kg, po by LC-MS/MS analysis; format: ADME, organism-based; design: dose 1 mg/kg, route po; settings: in vivo
[17] = Half life in ddY mouse at 1 mg/kg, po by LC-MS/MS analysis; format: ADME, organism-based; settings: in vivo
[18] = Total body clearance in ddY mouse at 1 mg/kg, iv by LC-MS/MS analysis; format: ADME, organism-based; settings: in vivo
[19] = Volume of distribution at steady state in ddY mouse at 1 mg/kg, iv by LC-MS/MS analysis; format: ADME, organism-based; settings: in vivo, read-out: Vdss
[20] = Bioavailability in ddY mouse at 1 mg/kg, iv by LC-MS/MS analysis; format: ADME, organism-based; settings: in vivo
[21] = Ratio of fCmax in ddY mouse plasma at 1 mg/kg, po to IC50 for inhibition of mouse Nav1.7/beta1/2 transfected in HEK293-A cells
[22] = test system: Mus musculus; experiment: Analgesic activity against PSL-induced neuropathic pain mouse model assessed as reversal of thermal hyperalgesia at 1 mg/kg, po measured after 240 mins by plantar test; format: functional, organism-based
[23] = target: T1, Cytochrome P450 1A2 (Homo sapiens, UniProt P05177); experiment: Inhibition of CYP1A2 (unknown origin) at 10 uM; format: ADME
T1 sequence (P05177 whole entry): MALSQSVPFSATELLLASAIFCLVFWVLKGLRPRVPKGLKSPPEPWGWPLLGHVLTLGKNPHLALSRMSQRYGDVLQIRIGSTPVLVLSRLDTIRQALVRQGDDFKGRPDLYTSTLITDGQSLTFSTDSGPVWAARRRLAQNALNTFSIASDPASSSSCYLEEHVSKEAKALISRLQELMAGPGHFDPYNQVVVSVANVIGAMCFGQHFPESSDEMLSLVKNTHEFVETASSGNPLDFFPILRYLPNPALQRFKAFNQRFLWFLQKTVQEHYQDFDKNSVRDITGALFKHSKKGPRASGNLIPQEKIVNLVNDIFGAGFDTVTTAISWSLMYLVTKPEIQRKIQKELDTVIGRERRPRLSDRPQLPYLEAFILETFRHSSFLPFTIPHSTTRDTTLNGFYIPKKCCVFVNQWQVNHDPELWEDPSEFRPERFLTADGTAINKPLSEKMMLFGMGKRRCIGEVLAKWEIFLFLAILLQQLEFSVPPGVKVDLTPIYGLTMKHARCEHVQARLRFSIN

[24] = target: Cytochrome P450 2C9 (Homo sapiens, UniProt P11712); experiment: Inhibition of CYP2C9 (unknown origin) at 10 uM; format: ADME
[25] = target: Cytochrome P450 2D6 (Homo sapiens, UniProt P10635); experiment: Inhibition of CYP2D6 (unknown origin) at 10 uM; format: ADME
[26] = target: Cytochrome P450 3A4 (Homo sapiens, UniProt P08684); experiment: Inhibition of CYP3A4 (unknown origin) at 10 uM; format: ADME
[27] = Glutathione reactivity in human liver microsome assessed as GSH adduct formation; format: ADME; settings: microsomes

Sequence of Sodium channel protein type 5 subunit alpha/beta-1/beta-2 (Q14524 whole entry): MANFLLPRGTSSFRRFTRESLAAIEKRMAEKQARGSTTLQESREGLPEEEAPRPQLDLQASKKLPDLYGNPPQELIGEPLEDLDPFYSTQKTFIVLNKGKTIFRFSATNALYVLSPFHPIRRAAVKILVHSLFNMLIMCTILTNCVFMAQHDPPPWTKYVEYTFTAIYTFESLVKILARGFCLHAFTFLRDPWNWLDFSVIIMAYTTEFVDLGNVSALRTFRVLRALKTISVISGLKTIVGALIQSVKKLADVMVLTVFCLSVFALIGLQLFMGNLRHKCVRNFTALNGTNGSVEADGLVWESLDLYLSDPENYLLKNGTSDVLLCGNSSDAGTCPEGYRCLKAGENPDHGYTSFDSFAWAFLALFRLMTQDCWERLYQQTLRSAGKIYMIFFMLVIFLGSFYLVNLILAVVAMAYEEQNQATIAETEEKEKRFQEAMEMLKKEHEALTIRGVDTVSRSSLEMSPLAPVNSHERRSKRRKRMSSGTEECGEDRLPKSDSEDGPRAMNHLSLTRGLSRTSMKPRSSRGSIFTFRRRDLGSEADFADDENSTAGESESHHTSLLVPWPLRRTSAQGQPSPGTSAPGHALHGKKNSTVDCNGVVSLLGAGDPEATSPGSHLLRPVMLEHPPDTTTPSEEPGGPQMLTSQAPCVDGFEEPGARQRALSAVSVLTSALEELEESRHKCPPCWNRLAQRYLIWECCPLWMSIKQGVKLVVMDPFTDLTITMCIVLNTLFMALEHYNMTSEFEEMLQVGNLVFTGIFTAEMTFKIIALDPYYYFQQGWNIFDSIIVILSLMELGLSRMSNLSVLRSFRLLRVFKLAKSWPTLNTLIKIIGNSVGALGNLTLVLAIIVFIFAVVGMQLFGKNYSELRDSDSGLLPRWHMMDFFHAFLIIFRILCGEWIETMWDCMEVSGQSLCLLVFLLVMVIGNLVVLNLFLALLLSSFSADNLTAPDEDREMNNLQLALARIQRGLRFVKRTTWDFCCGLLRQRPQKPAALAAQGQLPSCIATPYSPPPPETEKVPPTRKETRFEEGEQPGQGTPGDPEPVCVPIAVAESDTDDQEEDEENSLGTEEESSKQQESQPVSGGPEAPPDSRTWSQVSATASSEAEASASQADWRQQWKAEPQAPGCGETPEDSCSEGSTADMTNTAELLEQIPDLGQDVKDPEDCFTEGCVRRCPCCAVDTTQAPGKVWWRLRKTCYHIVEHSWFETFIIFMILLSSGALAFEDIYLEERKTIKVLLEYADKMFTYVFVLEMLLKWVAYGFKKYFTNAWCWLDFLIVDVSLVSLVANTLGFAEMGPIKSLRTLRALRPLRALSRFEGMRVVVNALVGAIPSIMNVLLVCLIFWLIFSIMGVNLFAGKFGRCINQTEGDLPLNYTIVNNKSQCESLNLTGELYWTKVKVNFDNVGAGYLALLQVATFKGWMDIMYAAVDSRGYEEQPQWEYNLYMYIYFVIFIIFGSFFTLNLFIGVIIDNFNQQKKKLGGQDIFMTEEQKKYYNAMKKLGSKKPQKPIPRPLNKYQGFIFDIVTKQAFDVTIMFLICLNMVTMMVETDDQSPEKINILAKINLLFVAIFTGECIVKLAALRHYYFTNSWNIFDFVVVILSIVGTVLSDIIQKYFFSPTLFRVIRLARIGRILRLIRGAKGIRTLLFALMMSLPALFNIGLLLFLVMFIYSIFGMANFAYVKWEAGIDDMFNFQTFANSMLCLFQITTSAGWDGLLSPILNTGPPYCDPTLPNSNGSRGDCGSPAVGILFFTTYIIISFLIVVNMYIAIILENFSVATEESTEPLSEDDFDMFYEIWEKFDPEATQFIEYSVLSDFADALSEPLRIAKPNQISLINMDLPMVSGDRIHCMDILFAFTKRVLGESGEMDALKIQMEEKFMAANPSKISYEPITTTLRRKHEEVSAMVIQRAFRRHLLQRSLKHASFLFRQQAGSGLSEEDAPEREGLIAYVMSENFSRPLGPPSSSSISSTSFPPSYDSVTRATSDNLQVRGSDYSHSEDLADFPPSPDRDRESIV
Sequence of Sodium channel protein type 5 subunit alpha/beta-1/beta-2 (O60939 whole entry, further chain): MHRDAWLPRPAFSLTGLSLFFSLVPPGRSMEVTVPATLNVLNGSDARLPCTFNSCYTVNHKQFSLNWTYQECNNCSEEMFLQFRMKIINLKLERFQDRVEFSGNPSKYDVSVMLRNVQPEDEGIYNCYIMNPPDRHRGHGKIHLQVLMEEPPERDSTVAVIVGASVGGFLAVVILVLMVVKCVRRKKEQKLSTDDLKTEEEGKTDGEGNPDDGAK
Sequence of Sodium channel protein type 5 subunit alpha/beta-1/beta-2 (Q07699 whole entry, further chain): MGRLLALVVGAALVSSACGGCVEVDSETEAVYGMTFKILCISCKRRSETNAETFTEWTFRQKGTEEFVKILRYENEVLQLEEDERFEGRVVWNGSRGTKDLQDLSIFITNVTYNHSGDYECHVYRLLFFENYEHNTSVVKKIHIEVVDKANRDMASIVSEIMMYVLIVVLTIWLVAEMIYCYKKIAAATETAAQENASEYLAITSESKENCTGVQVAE
Sequence of Sodium channel protein type 9 subunit alpha/beta-1/beta-2 (Homo sapiens, UniProt Q15858) (Q15858 whole entry): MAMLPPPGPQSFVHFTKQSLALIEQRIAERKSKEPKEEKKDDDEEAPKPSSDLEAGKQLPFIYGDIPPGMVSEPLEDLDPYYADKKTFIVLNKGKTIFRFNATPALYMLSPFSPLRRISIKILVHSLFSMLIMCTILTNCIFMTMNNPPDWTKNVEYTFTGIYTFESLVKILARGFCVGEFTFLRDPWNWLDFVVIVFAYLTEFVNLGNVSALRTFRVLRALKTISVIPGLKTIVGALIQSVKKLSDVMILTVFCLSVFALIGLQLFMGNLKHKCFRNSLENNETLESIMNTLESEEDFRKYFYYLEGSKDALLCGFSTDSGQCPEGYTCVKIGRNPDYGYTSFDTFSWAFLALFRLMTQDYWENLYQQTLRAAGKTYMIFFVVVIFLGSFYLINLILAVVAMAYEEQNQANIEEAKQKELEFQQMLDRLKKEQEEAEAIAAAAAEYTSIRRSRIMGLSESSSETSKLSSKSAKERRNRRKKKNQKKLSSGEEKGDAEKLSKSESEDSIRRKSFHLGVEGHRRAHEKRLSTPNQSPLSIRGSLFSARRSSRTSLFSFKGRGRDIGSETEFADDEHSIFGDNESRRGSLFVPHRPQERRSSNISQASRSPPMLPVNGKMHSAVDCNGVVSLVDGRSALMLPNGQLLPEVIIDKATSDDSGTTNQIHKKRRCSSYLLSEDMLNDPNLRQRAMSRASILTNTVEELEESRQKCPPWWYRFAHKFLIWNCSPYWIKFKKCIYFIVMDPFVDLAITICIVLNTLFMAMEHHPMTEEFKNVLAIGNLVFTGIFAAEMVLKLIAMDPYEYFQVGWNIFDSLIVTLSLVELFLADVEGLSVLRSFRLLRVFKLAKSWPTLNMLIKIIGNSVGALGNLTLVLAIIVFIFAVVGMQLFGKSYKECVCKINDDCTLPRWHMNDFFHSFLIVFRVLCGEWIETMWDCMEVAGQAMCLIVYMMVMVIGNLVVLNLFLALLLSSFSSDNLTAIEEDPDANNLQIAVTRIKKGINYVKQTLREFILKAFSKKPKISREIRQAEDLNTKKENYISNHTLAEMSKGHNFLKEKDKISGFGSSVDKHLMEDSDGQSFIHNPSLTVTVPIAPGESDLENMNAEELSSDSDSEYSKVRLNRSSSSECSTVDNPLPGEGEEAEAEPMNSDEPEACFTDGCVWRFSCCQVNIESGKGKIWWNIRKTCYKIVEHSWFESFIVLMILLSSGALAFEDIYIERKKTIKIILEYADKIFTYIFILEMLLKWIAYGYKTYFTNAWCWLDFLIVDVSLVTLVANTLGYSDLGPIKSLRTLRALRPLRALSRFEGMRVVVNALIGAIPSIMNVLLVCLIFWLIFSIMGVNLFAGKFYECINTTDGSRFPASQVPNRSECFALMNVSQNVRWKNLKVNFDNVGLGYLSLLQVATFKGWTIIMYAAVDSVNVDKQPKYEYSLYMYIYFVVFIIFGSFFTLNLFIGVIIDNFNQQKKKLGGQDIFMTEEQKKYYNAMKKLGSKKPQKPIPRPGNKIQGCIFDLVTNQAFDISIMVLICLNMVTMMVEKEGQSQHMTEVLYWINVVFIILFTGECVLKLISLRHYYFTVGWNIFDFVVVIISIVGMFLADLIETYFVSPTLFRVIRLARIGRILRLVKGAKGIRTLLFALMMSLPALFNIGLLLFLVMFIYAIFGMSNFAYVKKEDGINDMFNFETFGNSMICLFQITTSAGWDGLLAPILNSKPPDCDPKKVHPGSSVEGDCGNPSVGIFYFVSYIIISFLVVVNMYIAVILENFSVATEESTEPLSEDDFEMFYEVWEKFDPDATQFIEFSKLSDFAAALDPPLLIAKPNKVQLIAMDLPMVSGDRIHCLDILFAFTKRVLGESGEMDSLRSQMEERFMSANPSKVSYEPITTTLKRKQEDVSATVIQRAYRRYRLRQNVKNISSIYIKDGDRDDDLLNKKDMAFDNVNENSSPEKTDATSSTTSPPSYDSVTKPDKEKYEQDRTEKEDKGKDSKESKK
Sequence of Sodium channel protein type 9 subunit alpha/beta-1/beta-2 (Homo sapiens, UniProt Q15858) (O60939 whole entry, further chain): as the sequence (O60939 whole entry, further chain) above
Sequence of Sodium channel protein type 9 subunit alpha/beta-1/beta-2 (Homo sapiens, UniProt Q15858) (Q07699 whole entry, further chain): as the sequence (Q07699 whole entry, further chain) above
Sequence of Cytochrome P450 3A4 (P08684 whole entry): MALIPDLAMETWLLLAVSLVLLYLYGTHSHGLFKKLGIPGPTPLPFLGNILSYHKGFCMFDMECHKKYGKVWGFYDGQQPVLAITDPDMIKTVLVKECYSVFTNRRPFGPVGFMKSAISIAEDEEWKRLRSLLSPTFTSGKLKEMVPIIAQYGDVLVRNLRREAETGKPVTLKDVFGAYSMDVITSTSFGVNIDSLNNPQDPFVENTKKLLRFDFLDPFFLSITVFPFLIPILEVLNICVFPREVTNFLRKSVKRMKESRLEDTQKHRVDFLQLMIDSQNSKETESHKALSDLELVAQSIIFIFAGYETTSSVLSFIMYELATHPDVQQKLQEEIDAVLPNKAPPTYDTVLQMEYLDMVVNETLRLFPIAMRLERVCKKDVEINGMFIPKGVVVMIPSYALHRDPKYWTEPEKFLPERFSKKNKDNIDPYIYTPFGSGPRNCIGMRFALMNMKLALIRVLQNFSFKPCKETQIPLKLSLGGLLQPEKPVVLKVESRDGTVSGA

Compound: Cc1cn(-c2cncc(C(F)(F)F)c2)c2ccc(C(=O)NS(=O)(=O)C3CC3)cc12
- IC50 [1]: 0.015 µM
- IC50 [2]: 0.061 µM
- IC50 [3]: 6.6 µM
- IC50 [4]: 14 µM
- Ratio IC50 [5]: 440
- Ratio IC50 [6]: 930
- inhibition at 100 µM [7]: 6.9%
- logD [8]: 1
- solubility thermodynamic at 4 h [9]: 130 µM (≈ 55 µg/mL)
- fraction unbound [10]: 0.005
- Activity [11]: inactive
- Activity [12]: Active
- Activity [13]: Active
- Cmax [14]: 2300 nM
- Tmax [15]: 3.3 h
- AUC(0-t) [16]: 41.5 µM·h
- half-life [17]: 17 h
- clearance [18]: 1.01 mL/min/kg
- Vd [19]: 0.81 L/kg
- bioavailability [20]: 117%
- Ratio [21]: 0.2
- Activity [22]: inactive
- inhibition (INH) [23]: Not Active
- inhibition (INH) [24]: Not Active
- inhibition (INH) [25]: Not Active
- inhibition (INH) [26]: Not Active
- Activity [27]: Not Active
